Read-outs that look alike come from different tables or passages of the source.
Tests used:
[1] = system: rats; conditions: 400 ppm for 41 days; cited from earlier work
[2] = system: shrimp; conditions: 50 mg/kg diet, 3 months; cited from earlier work
[3] = system: canker sores; test: Example 2: oral astaxanthin soft gel capsules, canker sores in one individual; format: in vivo, human
Protocol: (§1) Haematococcus algae meal containing 1.5% astaxanthin was thoroughly mixed with safflower oil such that the resulting suspension contained 2.0 mg of pure astaxanthin per gram of safflower oil suspension. 500 mg soft gel capsules were produced from the safflower oil suspension such that each soft gel capsule contained 1.0 mg of pure astaxanthin.
A second individual was a person who had often suffered canker sores on the inside of their mouth. They had difficulty and pain eating sour and tart foods due to the condition. This individual consumed 2.0 mg of astaxanthin (two soft gel capsules) per day for three weeks and the cankers sores were alleviated. They were then able to eat sour and tart foods without suffering pain from the canker sores. When the individual stopped taking the supplement the canker sores returned within 10 days.

[4] = system: neoplasms in the large intestines; conditions: rats fed astaxanthin, azoxymethane induction; cited from earlier work
[5] = in vivo; cited from earlier work
[6] = system: Atlantic salmon fry; conditions: cited from earlier work
[7] = system: free putrescine in the epidermis; conditions: 10 ppm astaxanthin diet, 4 months; control increased 4.1-fold; cited from earlier work
[8] = system: neoplastic liver lesions; conditions: dietary astaxanthin; cited from earlier work
[9] = system: chicken embryo fibroblasts (CEF); conditions: SOD, catalase, glutathione peroxidase as indices; cited from earlier work
[10] = system: cold sores; test: Example 1: oral astaxanthin soft gel capsules, cold sore outbreaks in one individual; format: in vivo, human
Protocol: as §1
One individual was a person who has suffered from cold sore outbreaks every 4-6 weeks on average which lasted 10-14 days . This individual consumed 3.0 mg of astaxanthin (three soft gel capsules) per day for two weeks prior to an outbreak, and the symptoms lasted only 2 days instead of 2 weeks.

[11] = system: rat kidney fibroblasts; conditions: UVA light for four hours; cited from earlier work
[12] = system: rhodopsin; conditions: oral dosing, cited from earlier work
[13] = 2 mg astaxanthin capsule, six months; placebo 21.78; P=0.047; cited from earlier work
[14] = system: neoplasms in the oral cavity; conditions: cited from earlier work
[15] = system: CYP1A1; conditions: dietary level 300 ppm; cited from earlier work
[16] = 0.1% dietary astaxanthin for 30 days, cited from earlier work
[17] = system: photoreceptor cells of the retina; conditions: 37.5 mg/kg intraperitoneal at 12 hour intervals; uninjured control 45, injured without astaxanthin 32; cited from earlier work
[18] = system: preneoplastic lesions and neoplasms in the bladder; conditions: 50-ppm astaxanthin in drinking water; cited from earlier work
[19] = system: herpes Simplex virus; conditions: cited from earlier work

Which “effects on body/organ weight, enzyme activities, pregnancy, litter size” value [1] does the source give for `CC1=C(/C=C/C(C)=C/C=C/C(C)=C/C=C/C=C(C)/C=C/C=C(C)/C=C/C2=C(C)C(=O)[C@@H](O)CC2(C)C)C(C)(C)C[C@H](O)C1=O` [astaxanthin] here?
Its value is “no harmful effects”.

What about the average survival rate [2] of the same compound?
The average survival rate was 87%.

What about the “effect on canker sores” value ([3]; 2.0 mg astaxanthin per day (two soft gel capsules) for three weeks) of the same compound?
The value was “alleviated”.

And the “time to return of canker sores after stopping the supplement” value ([3]; after stopping 2.0 mg per day)?
Its value is no more than 10 days.

What about the “effect on symptoms on taking the supplement again” value ([3]; same dosage, 2.0 mg per day) of the same compound?
Its value is “ameliorated after approximately three weeks”.

And the “incidence and multiplicity of neoplasms in the large intestines” value [4]?
Its value is “significantly smaller”.

And the “crossing of the blood-brain barrier” value [5]?
Its value is “able to readily cross the blood-brain barrier”.

And the survival rate ([6]; astaxanthin concentrations below 1 ppm in diet)?
The survival rate was “less than 50%”.

And the survival rate ([6]; groups receiving higher concentrations)?
The survival rate was “greater than 90%”.

And the “increase of putrescine after UV irradiation” value [7]?
The value was 1.5 fold.

And the “number and size of neoplastic liver lesions” value [8]?
Its value is “significant influence on the reduction in number and size”.

What about the “protection against paraquat-induced oxidative stress” value [9] of the same compound?
Its value is “observed at all levels of astaxanthin tested”.

What about the “duration of cold sore symptoms” value ([10]; 3.0 mg astaxanthin per day (three soft gel capsules) for two weeks before the outbreak, earlier 10-14 days) of the same compound?
The value was 2 days.

What about the “recurrence of cold sores” value ([10]; 3.0 mg per day, earlier outbreaks every 4-6 weeks) of the same compound?
The value was “has not had a another recurrence of cold sores in three months”.

What about the “level required to restore superoxide dismutase activity” value [11] of the same compound?
The value was 5 nM.

What about the “level that prevented the UVA-induced increase in TBARS” value [11] of the same compound?
Its value is 1 nM.

And the “level that returned catalase activity to control levels” value [11]?
Its value is 5 nM.

What about the retinal rhodopsin level ([12]; 6-hour post injury, control 0.75) of the same compound?
Its retinal rhodopsin level is 1.15 to 1.2 nmol.

What about the retinal rhodopsin level ([12]; 6 days after injury, constant through day 13, control 0.5) of the same compound?
The retinal rhodopsin level was “about 1.25 nmol”.

What about the “strength/endurance average score (knee bends with a barbell weight)” value [13] of the same compound?
The value was 61.74.

What about the “incidences of preneoplastic and neoplasms in the oral cavity” value ([14]; 100-ppm dietary astaxanthin after the carcinogenic chemical induction) of the same compound?
Its value is “significantly smaller”.

And the oral neoplasms ([14]; astaxanthin and the chemical inducer fed at the same time)?
Its oral neoplasms is “no oral neoplasms developed”.

And the “induction of CYP1A1” value [15]?
Its value is “strong inducer”.

What about the LDL cholesterol ([16]; control diet 12.5) of the same compound?
Its LDL cholesterol is 9.6 mg/dL.

And the HDL cholesterol ([16]; control diet 42.4)?
The HDL cholesterol was 57 mg/dL.

And the “outer nuclear layer (ONL) thickness after photic injury” value [17]?
The value was 42 microns.

And the “incidence of preneoplastic lesions and neoplasms in the bladder” value [18]?
The value was “significantly reduced incidence”.

Which “patients with no fever blister outbreaks” value ([19]; four acyclovir pills daily for 4 months) does the source give for `Nc1nc2c(ncn2COCCO)c(=O)[nH]1` [acyclovir, Acyclovir] here?
The value was 50%.

And the “effectiveness against fever blisters” value ([19]; pills taken at onset of symptoms, or cream applied to blisters or tingling lip areas, separate studies)?
The value was “only minimally effective”.

Which results are given for `CC1=C(/C=C/C(C)=C/C=C/C(C)=C/C=C/C=C(C)/C=C/C=C(C)/C=C/C2=C(C)CCCC2(C)C)C(C)(C)CCC1` [beta-carotene]?
average survival rate [2]: 50%; level required to restore superoxide dismutase activity [11]: 500 nM; level that prevented the UVA-induced increase in TBARS [11]: 100 nM; level that returned catalase activity to control levels [11]: 1000 nM

With `CC1=C[C@H](O)CC(C)(C)[C@H]1/C=C/C(C)=C/C=C/C(C)=C/C=C/C=C(C)/C=C/C=C(C)/C=C/C1=C(C)C[C@@H](O)CC1(C)C` [lutein] as the compound, how does the “level required to restore superoxide dismutase activity” value [11] read?
Its value is 1000 nM.

And the “level that prevented the UVA-induced increase in TBARS” value [11]?
Its value is 1000 nM.

What about the “level that returned catalase activity to control levels” value [11] of the same compound?
The value was 100 nM.

From patent US6344214B1, “Method for retarding and ameliorating fever blisters and canker sores” (priority 1999, dated 2002)
